Laboratory results published in US11066369B2, “N-(pyridin-2-yl)pyridine-sulfonamide derivatives and their use in the treatment of disease” (Novartis AG, priority 2016, dated 2021).

Tests used:
[1] = target: T1, horseradish peroxidase (HRP) tagged delF508-CFTR (Homo sapiens, UniProt P13569, DEL508-508); assay: Measurement of delF508-CFTR-HRP surface expression in CFBE41o- cells; format: cell-based; conditions: delF508-CFTR-HRP surface expression, CFBE41o- cells; for Emax: read-out: DelF508-CFTR-HRP Amax %; for EC50: read-out: DelF508-CFTR-HRP EC50;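 on DelF508-CFTR-HRP Amax %: percent efficacy relative to reference corrector lumacaftor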
T1 construct: expressed in transfected cells
Method in brief: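 Surface-trafficked delF508-CFTR detected via extracellular HRP tag, read as luminescence from a membrane-impermeant substrate in CFBE41o- cells. Cells pre-induced 48h with 500 ng/mL doxycycline, then exposed 24h at 37° C to a 10-point, 3-fold dilution series from 10 μM (DMSO ≤0.5%). Triplicate dose-responses fitted logistically for EC50 after per-plate normalization; fold change versus reference compound.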

delF508-CFTR = target: T2, delF508-CFTR (Homo sapiens, UniProt P13569, DEL508-508); assay: Measurement of delF508-CFTR functional activity in primary human bronchial epithelial cells (HBECs) using Multi-Transepithelial Clamp Circuit (MTECC-24) assay; format: cell-based; conditions: primary CF HBECs; for MTECC24 CFHBEC- Amax %: test compound added 24h before assay plus potentiator, relative to reference combination (2 μM corrector + 0.5 μM potentiator); for EC50: test compound added 24h before assay, in the presence of potentiator, mean of at least two replicates, read-out: MTECC24 CFHBEC- EC50
T2 construct: functional activity of the CFTR channel (Chloride ion transport) in patient derived primary human bronchial epithelial cells; host or cells: patient-derived primary human bronchial epithelial cells (delF508-CFTR)
Text: [formula] Measurement of delF508-CFTR Functional Activity in Primary Human Bronchial Epithelial Cells (HBECs) Using Multi-Transepithelial Clamp Circuit (MTECC-24) Assay
This assay measures the functional activity of the CFTR channel (Chloride ion transport) in patient derived primary human bronchial epithelial cells with forskolin activation and in the presence of the CFTR corrector/potentiator combo.
Primary human delF508-CFTR bronchial epithelial cells were purchased from Asterand and cultured according to previously established methods (Fulcher et al. (2005) Methods Mol Med 107: 183-206). Briefly, vendor supplied cells were rapidly defrosted and added to a T175 flask in 50 mL growth media (Lonza BEBM media with Lonza BEGM singlequots). Media was replaced after 24h and then cells were fed every other day until cells were 80-90% confluent, at which point cells were cryopreserved. These P1 vials were thawed at 37° C. as needed and added to T175 flasks in 50 mL growth media at 5×10^5 cells/flask. Media was replaced after 24h, and then cells were fed every other day until 80-90% confluent. Cells were lifted with 5 mL accutase at 37° C. for 5 minutes, centrifuged at 1000 rpms for 5 min (300 g), and resuspended in differentiation media (50% BEBM in DMEM, BEGM singlequots, all trans retinoic acid (5×10^−8M)). Cells were then counted and cell suspension was added to collagen coated inserts at 3×10^4 cells/insert in 0.15 mL with 0.5 mL differentiation media on the basolateral side.
Apical and basolateral media were replaced on alternate days, and following day 7 (or when confluent plus 2 days), air liquid interface was established for approximately two weeks by removal of apical media. One day prior to use on the MTECC24 system (EP-Devices, EP Design, Belgium), 0.15 mL of warmed (37° C.) PBS was added to the apical surface of the cultures and returned to humidifier (37° C., 5% CO2 incubator) for 30 min before aspirating the apical surface to remove any mucus.
Compound treatments were then prepared. Compound dilutions, typically a 10 point concentration response with 1 in 3 dilution steps, were made in 100% DMSO before dilution 1 in 1000 into differentiation medium with a final DMSO concentration of 0.1% or 0.2% for the study. Compound containing medium was then transferred into the wells of a 24 well plate at 0.5 mL per well and warmed for 30 min in a 37° C. incubator prior to transferring washed inserts into the compound containing plates. Cells were incubated in compound containing medium (basolateral only) for 24h prior to measurement in the MTECC24 system.
Following 24 hr treatment, compound dilutions were prepared again, diluted 1 in 1000 into 37° C. assay medium (F-12 Coon's modified, 20 mM HEPES pH7.4 with TRIS Base, No FCS or bicarbonate). Cells which were treated for 24h with test compound were then transferred into plates containing 0.75 mL compound treatment in assay medium (basolateral) and 0.25 mL of the compound containing assay medium was added to the apical surface. The plates were then transferred to the heated plate compartments of the MTECC24 system for 45 min prior to measurements (this can also be done in a non-CO2 37° C. humidified incubator). Basolateral temperature should not exceed 36.5° C. and apical temperature should be approximately 35.5° C.
Modulators were added sequentially as follows while the MTECC24 instrument recorded the equivalent short circuit current (Ieq):
Prior to dilution into F-12 medium the stocks are as follows:
Amiloride stock is 10 mM in H2O
Forskolin Stock is 10 mM in 100% DMSO
(S)-3-amino-6-methoxy-N-(3,3,3-trifluoro-2-hydroxy-2-methylpropyl)-5-(trifluoromethyl)picolinamide is 0.5 mM stock in 100% DMSO
INH-172 (4-[[4-Oxo-2-thioxo-3-[3-trifluoromethyl)phenyl]-5-thiazolidinylidene]methyl]benzoic acid) stock is 30 mM in 100% DMSO
The data was normalized using the median signal from wells treated with 0.1% DMSO as a baseline. […]

T2 sequence (P13569 with tags, fused parts or gaps DEL508-508): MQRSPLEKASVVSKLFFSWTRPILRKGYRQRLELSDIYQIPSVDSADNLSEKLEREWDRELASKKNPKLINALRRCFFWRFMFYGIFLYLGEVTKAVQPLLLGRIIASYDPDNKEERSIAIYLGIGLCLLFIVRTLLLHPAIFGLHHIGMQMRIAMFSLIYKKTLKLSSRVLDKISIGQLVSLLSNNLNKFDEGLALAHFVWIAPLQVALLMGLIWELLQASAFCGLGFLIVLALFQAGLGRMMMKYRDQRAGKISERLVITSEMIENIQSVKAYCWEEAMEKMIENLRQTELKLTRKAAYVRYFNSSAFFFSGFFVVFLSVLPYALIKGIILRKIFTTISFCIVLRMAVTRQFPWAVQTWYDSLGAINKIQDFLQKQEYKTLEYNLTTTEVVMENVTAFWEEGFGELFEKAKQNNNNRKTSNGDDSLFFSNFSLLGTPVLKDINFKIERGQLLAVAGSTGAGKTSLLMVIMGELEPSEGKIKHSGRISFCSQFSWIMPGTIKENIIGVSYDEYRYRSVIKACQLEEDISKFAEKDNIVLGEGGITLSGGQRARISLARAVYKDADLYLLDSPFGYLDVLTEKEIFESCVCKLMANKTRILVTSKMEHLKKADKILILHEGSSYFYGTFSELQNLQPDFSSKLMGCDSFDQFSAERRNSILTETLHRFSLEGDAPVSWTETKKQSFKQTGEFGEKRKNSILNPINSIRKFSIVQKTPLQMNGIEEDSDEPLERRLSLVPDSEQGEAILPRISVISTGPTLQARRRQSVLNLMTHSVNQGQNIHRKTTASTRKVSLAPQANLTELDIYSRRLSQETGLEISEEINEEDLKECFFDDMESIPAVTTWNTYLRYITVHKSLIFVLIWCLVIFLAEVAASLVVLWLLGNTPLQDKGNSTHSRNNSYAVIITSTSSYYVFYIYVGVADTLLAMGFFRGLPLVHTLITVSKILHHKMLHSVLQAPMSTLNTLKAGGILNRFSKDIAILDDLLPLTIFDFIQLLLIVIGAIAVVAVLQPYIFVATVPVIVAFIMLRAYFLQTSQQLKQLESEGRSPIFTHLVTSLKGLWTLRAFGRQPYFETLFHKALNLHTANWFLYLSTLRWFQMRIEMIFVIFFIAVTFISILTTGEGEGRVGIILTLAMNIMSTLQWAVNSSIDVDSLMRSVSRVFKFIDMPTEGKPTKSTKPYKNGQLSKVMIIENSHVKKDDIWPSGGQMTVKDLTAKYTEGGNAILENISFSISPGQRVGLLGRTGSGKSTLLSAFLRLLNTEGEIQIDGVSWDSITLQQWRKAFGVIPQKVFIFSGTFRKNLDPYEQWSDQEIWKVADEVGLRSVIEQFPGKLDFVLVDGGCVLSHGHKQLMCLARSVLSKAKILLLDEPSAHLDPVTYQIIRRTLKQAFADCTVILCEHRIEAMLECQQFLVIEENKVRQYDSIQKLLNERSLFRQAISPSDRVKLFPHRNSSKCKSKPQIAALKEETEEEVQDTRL
T1 sequence (P13569 with tags, fused parts or gaps DEL508-508): as above

Row | Emax [1] [%] | EC50 [1] [nM] | MTECC24 CFHBEC- Amax % (delF508-CFTR) [%] | EC50 (delF508-CFTR) [nM] | SMILES
1 | 612 | 1510 | 61.0 | 13.1 | Cc1ccc(F)cc1-c1nc(NS(=O)(=O)c2cccc(N)n2)ccc1Cl [Example 6, 6-amino-N-(5-chloro-6-(5-fluoro-2-methylphenyl)pyridin-2-yl)pyridine-2-sulfonamide]
2 | 610 | 1630 | 66.8 | 2.7 | Cc1c(F)cccc1-c1nc(NS(=O)(=O)c2cccc(N)n2)ccc1C(F)(F)F [Example 7, 6-amino-N-(6-(3-fluoro-2-methylphenyl)-5-(trifluoromethyl)pyridin-2-yl)pyridine-2-sulfonamide]
3 | 579 | 1350 | 94.3 | 13.6 | Cc1cccc(C)c1-c1nc(NS(=O)(=O)c2cccc(N)n2)ccc1Cl [Example 11, 6-amino-N-(5-chloro-6-(2,6-dimethylphenyl)pyridin-2-yl)pyridine-2-sulfonamide]
4 | 555 | 1320 | 85.2 | 9.7 | Cc1c(F)cccc1-c1nc(NS(=O)(=O)c2cccc(N)n2)ccc1Cl [Example 12, 6-amino-N-(5-chloro-6-(3-fluoro-2-methylphenyl)pyridin-2-yl)pyridine-2-sulfonamide]
5 | 536 | 1310 | 100.1 | 24 | Cc1cccc(Cl)c1-c1nc(NS(=O)(=O)c2cccc(N)n2)ccc1Cl [Example 13, 6-amino-N-(5-chloro-6-(2-chloro-6-methylphenyl)pyridin-2-yl)pyridine-2-sulfonamide]
6 | 400 | 2520 | 58.2 | 11.6 | Cc1c(-c2nc(NS(=O)(=O)c3cccc(N)n3)ccc2Cl)cccc1C(F)(F)F [Example 34, 6-amino-N-(5-chloro-6-(2-methyl-3-(trifluoromethyl)phenyl)pyridin-2-yl)pyridine-2-sulfonamide]
7 | 305 | 1700 | 86.7 | 15.5 | Nc1cccc(S(=O)(=O)Nc2ccc(Cl)c(-c3ccccc3C(F)(F)F)n2)n1 [Example 55, 6-amino-N-(5-chloro-6-(2-(trifluoromethyl)phenyl)pyridin-2-yl)pyridine-2-sulfonamide]

More lines, now with the values behind:

Row | SMILES | Emax [1] [%] | EC50 [1] [nM] | MTECC24 CFHBEC- Amax % (delF508-CFTR) [%] | EC50 (delF508-CFTR) [nM]
8 | Cc1cccc(C)c1-c1nc(NS(=O)(=O)c2cccc(N)n2)ccc1Br [Example 3, 6-amino-N-(5-bromo-6-(2,6-dimethylphenyl)pyridin-2-yl)pyridine-2-sulfonamide] | 688 | 1440 | 60.3 | 1.9
9 | Cc1cccc(C)c1-c1nc(NS(=O)(=O)c2ccnc(N)c2)ccc1Cl [Example 4, 2-amino-N-(5-chloro-6-(2,6-dimethylphenyl)pyridin-2-yl)pyridine-4-sulfonamide] | 632 | 912 | 52.0 | 40.8
10 | Cc1cccc(C)c1-c1cc(C(F)(F)F)cc(NS(=O)(=O)c2cccc(N)n2)n1 [Example 5, 6-amino-N-(6-(2,6-dimethylphenyl)-4-(trifluoromethyl)pyridin-2-yl)pyridine-2-sulfonamide] | 629 | 1150 | 97.56 | 3
11 | Cc1cccc(C)c1-c1cc(Cl)cc(NS(=O)(=O)c2cccc(N)n2)n1 [Example 10, 6-amino-N-(4-chloro-6-(2,6-dimethylphenyl)pyridin-2-yl)pyridine-2-sulfonamide] | 592 | 1530 | 87.0 | 5.8
12 | Nc1cccc(S(=O)(=O)Nc2ccc(C(F)(F)F)c(-c3ccccc3Cl)n2)n1 [Example 17, 6-amino-N-(6-(2-chlorophenyl)-5-(trifluoromethyl)pyridin-2-yl)pyridine-2-sulfonamide] | 510 | 2090 | 69.5 | 5.1
13 | Nc1cccc(S(=O)(=O)Nc2ccc(C(F)(F)F)c(-c3ccccc3C(F)(F)F)n2)n1 [Example 18, 6-amino-N-(5-(trifluoromethyl)-6-(2-(trifluoromethyl)phenyl)pyridin-2-yl)pyridine-2-sulfonamide] | 505 | 1890 | 65.5 | 7.9
14 | Cc1cccc(C)c1-c1nc(NS(=O)(=O)c2ccnc(N)c2)ccc1C(F)(F)F [Example 25, 2-amino-N-(6-(2,6-dimethylphenyl)-5-(trifluoromethyl)pyridin-2-yl)pyridine-4-sulfonamide] | 482 | 1060 | 94.2 | 14.5
15 | Nc1cccc(S(=O)(=O)Nc2ccc(C(F)(F)F)c(-c3ccccc3C3CC3)n2)n1 [Example 28] | 429 | 1380 | 77.1 | 1.6
16 | Cc1ccccc1-c1nc(NS(=O)(=O)c2ccc(C)c(N)n2)ccc1C(F)(F)F [Example 36, 6-amino-5-methyl-N-(6-(o-tolyl)-5-(trifluoromethyl)pyridin-2-yl)pyridine-2-sulfonamide] | 390 | 2100 | 67.6 | 25.9
17 | Nc1cccc(S(=O)(=O)Nc2ccc(C(F)(F)F)c(-c3ccc(F)cc3Cl)n2)n1 [Example 41, 6-amino-N-(6-(2-chloro-4-fluorophenyl)-5-(trifluoromethyl)pyridin-2-yl)pyridine-2-sulfonamide] | 368 | 2340 | 88.8 | 13.9
18 | Cc1ccc(F)cc1-c1nc(NS(=O)(=O)c2ccnc(N)c2)ccc1C(F)(F)F [Example 42, 2-amino-N-(6-(5-fluoro-2-methylphenyl)-5-(trifluoromethyl)pyridin-2-yl)pyridine-4-sulfonamide] | 367 | 2260 | 72.4 | 39.9
19 | Nc1cccc(S(=O)(=O)Nc2ccc(Cl)c(-c3cc(C(F)(F)F)ccc3Cl)n2)n1 [Example 43, 6-amino-N-(5-chloro-6-(2-chloro-5-(trifluoromethyl)phenyl)pyridin-2-yl)pyridine-2-sulfonamide] | 361 | 2120 | 54.2 | 63.3
20 | Cc1ccc(F)cc1-c1nc(NS(=O)(=O)c2ccc(N)nc2)ccc1Cl [Example 44, 6-amino-N-(5-chloro-6-(5-fluoro-2-methylphenyl)pyridin-2-yl)pyridine-3-sulfonamide] | 346 | 1770 | 61.6 | 46
